Reference: patent publication US6344442B2, “Zona pellucida proteins for contraception” (Schering Aktiengesellschaft, priority 1996, dated 2002)

Assays:
Format in all cases: cell-based
[1] = tested on: mouse zona pellucida (bonding of mouse sperm); test: Zona pellucida bonding test in mice (sperm bonding to isolated zonae); settings: 20 sperm bonds per zona corresponds to 100%
Experimental: (§1) To recover sperm, a mouse buck is sacrificed, and the two epididymal appendages are removed and transferred into the prepared small Petri dishes [see above under b)]. The tissue parts are cut in the medium, so that the sperm can escape. The sperm are capacitated for one hour in the incubator. After the capacitation time has been completed, the sperm are diluted 1:5 with BWW/0.3 BSA. For counting in the counting chamber, a 1:1 aliquot is diluted with doubly distilled H2O. The desired sperm concentration is 40,000-80,000/0.1 ml.
(§2) The animals are sacrificed 13 hours after the HCG injection, and the tubes are removed and transferred into the prepared small Petri dishes [see above under a)]. Pending further processing, the small dishes are kept at 37° C. on the warming plate. Under the stereomicroscope, the tubes that are in oil are pulled apart. In this case, the cumulus clouds pour out, which then are transferred into the prepared medium drops (two cumulus clouds per drop).
The sperm and oocytes are obtained as described in in vitro fertilization.
The oocytes that are obtained as under I.2.3. are taken up by a finely drawn Pasteur pipette, whose diameter must be somewhat smaller than the diameter of the oocytes, with a few μl of BWW medium. This process is repeated several times and finally causes the zonae pellucida to burst. The cytoplasmic portion of the ooctyes is released, and the isolated zona pellucida is collected for further tests and covered in 0.1 ml of BWW medium with equilibrated oil and kept at 37° C.
The capacitated mouse sperm (see I.2.2) are preincubated for 15 minutes either with a solvent or the desired substance, and then 0.1 ml drops are added to the isolated zonae pellucidae, in such a way that the incubation volume is a total of 0.2 ml (under oil). About 20 zonae pellucidae are studied per drop. The sperm concentration per drop is between 10,000 and 30,000 per μl. Sperm and zonae are incubated for 45 minutes in an incubator (see Description under I.2). After the incubation period, the number of bonded sperm per zona is evaluated under an inverse microscope. The upper limit of the sperm, which have yet to be counted exactly, is 20 sperm per zona pellucida under control conditions.
10,000 Sperm per 0.01 ml with 20 sperm bonds per zonae corresponds to 100%

[2] = tested on: human zona pellucida (bonding of human sperm); test: Zona pellucida bonding test in humans (hemizona); settings: 4 hours at 37° C.
Experimental: For the zona bonding test in humans, the ejaculate of normo-zoospermatocidal donor semen is prepared with use of SpermFertil^(R) glass wool columns (Mello Ltd., FRG). The filtrates were washed and resuspended in HFT-HSA (HFT=human tubal fluid medium according to Quinn et al., supplemented with 10 mg/ml of human serum albumin=HSA).
All human oocytes are obtained from post mortem material. Provision is made at all times to ensure that all legal, ethical and moral guidelines during the entire process are strictly followed.
Unless otherwise indicated, the oocytes are stored in 36.6 mmol of HEPES buffer, pH 7.4, which contains […] MgCl2 and 0.1% PVP at 4° C.
The experiments consist of three incubation drops that contain 10 μl of a standard HTF-HSA medium (see above) and 40 μl of working medium (see below). A specific number of oocytes (for TEM) or hemizonae for the bonding was added to each drop to ensure bonding. For the bonding experiments, a 10 μl sperm drop (50×10^6/ml) was added to each drop, covered with mineral oil, and incubated for 4 hours at 37° C. in 5% CO2. The statistical evaluation was done according to the non-parametric Mann-Whitney two-sample test.
Composition of the working medium: 20 μl of 5 mmol NaH2PO4 (adjusted with phosphoric acid), pH 2.5, plus 20 μl of a specially composed doubly-concentrated HTF-HSA medium, mixed at a ratio of 1:1 (vol/vol).
Composition of the doubly-concentrated HTF-HSA medium: […]

sperm = test: Sperm movement parameters
capacitated human sperm = test: Acrosome reaction in capacitated human sperm
[3] = tested on: mouse oocytes and sperm (in vitro fertilization); test: Mouse in vitro fertilization; settings: 24 hours incubation
Text: I. In Vitro Fertilization
In vitro fertilization represents a test system that makes possible a first review of a contraceptive effect of substances. In this case, the possibility exists of studying whether the contraceptive effect can be attributed primarily to an inhibition of the sperm function(s) or to an inhibiting effect on the oocytes, or to the two above-mentioned effects.
Fertile female mice (CB6F1 strain) about 12 weeks of age; fertile male mice (CB6F1 strain) at least 14 weeks of age.
c) 0.1 ml of BWW/0.3% BSA, corresponding to the concentrations that are to be tested, is mixed with or without substance (control) for the fertilization (prepared after removal of the tubes), covered with equilibrated oil, and kept at 37° C.
10 injection units of PMS/0.1 ml are injected intrapericutaneously into the approximately 12-week-old fertile mice, and 54 hours later, 10 injection units of HCG/0.1 ml are administered.
as §1, §2
0.1 ml of dilute sperma-defined concentration is added to the oocytes that are in the medium drops and is incubated for 24 hours in the incubator at 37° C.
After incubating for 24 hours in the incubator, the following parameters are computed:
The fertilization rate corresponds to the number of divided oocytes per total number of intact oocytes.

Substance | % Inhibition of Sperm Bonding (Mouse) to the Mouse Zona Pellucida ([1]; 0.1 μg/ml peptide) [%] | % Inhibition of Sperm Bonding (Mouse) to the Mouse Zona Pellucida ([1]; 10 μg/ml peptide) [%] | % Inhibition of Sperm Bonding (Mouse) to the Mouse Zona Pellucida ([1]; 100 μg/ml peptide) [%] | % Inhibition of Sperm Bonding (Human) to the Human Zona Pellucida ([2]; 1 μg/ml peptide) [%] | % Inhibition of Sperm Bonding (Human) to the Human Zona Pellucida ([2]; 10 μg/ml peptide) [%] | influence on parameters of the sperm movement (sperm) | triggering of the acrosome reaction (capacitated human sperm) | % Inhibition of Sperm Bonding (Mouse) to the Mouse Zona Pellucida ([1]; 1 μg/ml peptide) [%] | % Inhibition of Mouse In Vitro Fertilization ([3]; 0.1 μg/ml peptide) [%] | % Inhibition of Mouse In Vitro Fertilization ([3]; 1 μg/ml peptide) [%] | % Inhibition of Mouse In Vitro Fertilization ([3]; 10 μg/ml peptide) [%]
NH2-RYPRQGNVSS-COOH (H-RYPRQGNVSS-OH) [human ZPC (ZP3) peptide, residues 141-150] | 71 | 89 | 91 | 76 | 77 | does not influence any parameters of the sperm movement | do not trigger the acrosome reaction | – | – | – | –
Ac-QRPGHIQFQS-NH2 [Ac-QRPGHIQFQS-NH2 (reverse), reference compound] | – | 0 | – | – | – | – | – | 0 | – | – | –
NH2-TRRCRTASHPVSASE-COOH (H-TRRCRTASHPVSASE-OH) [human ZPC (ZP3) peptide, residues 410-424] | 86 | 87 | – | 61 | 88 | – | – | – | – | – | –
NH2-SQFQIHGPRQ-COOH (H-SQFQIHGPRQ-OH) | – | 72 | – | – | – | – | – | 61 | 52 | 29 | 1
Ac-SQFQIHGPRQ-NH2 | – | – | – | – | – | – | – | – | 0 | 63 | 5
Ac-CGTPSHSRRQPHVMS-NH2 [human ZPC (ZP3) peptide, residues 327-341] | – | – | – | 45 | 88 | – | do not trigger the acrosome reaction | – | – | – | –
NH2-SRNRRHVTEEADVT-COOH (H-SRNRRHVTEEADVT-OH) [human ZPC (ZP3) peptide, residues 348-361] | 69 | 85 | 82 | 0 | 0 | – | – | – | – | – | –
NH2-TPT..PDQNASPY-COOH (H-TPTPDQNASPY-OH) [human ZPC (ZP3) peptide, residues 220-230] | – | – | – | 0 | 18 | – | – | – | – | – | –
